Key:
[1] = system: Pichia guilliermondii wild type and regulatory mutants (rib81); experiment: Sensitivity after electroporation to K2Cr2O7, medium with 0.5% glycerol (Table 21); format: cell-based; details: Cr^+6 250–350 μM, 0.6 M KCl
Description: The possibility for positive selection of P. guilliermondii rib81 transformants unable to overproduce riboflavin in minimal medium was studied. For this, the toxicity of K2Cr2O7 (Cr^+6) was compared for the P. guilliermondii wild-type strain ATCC 9058 and regulatory mutants P. guilliermondii rib81 9-20 and 20-2. The cells were pregrown in liquid YPD to OD 1.5–2.0 (540 nm) and electroporated according to the protocol described (Example 34). Electroporated cells were washed three times with 10×volume of 0.6 M KCl and then the volume was adjusted to 1 ml. Then the cells were plated at 0.2 ml suspension per plate which contained 0.5% glycerol, 0.6 M KCl and K2Cr2O7 (50–1000 μM).
The visual selection of the non-overproducing riboflavin transformants is rather arbitrary and uncertain. Therefore it was decided to develop the method for positive selection of the transformants using tentative differences in sensitivity to K2Cr2O7 of wild-type P. guilliermondii and the regulatory mutants rib81 9-20 and 20-2. After 6 days of cultivation in the medium with 0.5% glycerol, it was shown that K2Cr2O7 at 150–180 μM inhibited growth of regulatory mutant 9-20 more strongly than that of the wild strain (Table 21).

[2] = system: Candida famata regulatory mutants able to overproduce riboflavin; experiment: Sensitivity to K2Cr2O7, solid Burkholder medium with 0.5% glycerol (Table 14); format: cell-based; parameters: key: +++: strong growth; ++: weak growth; —: absence of growth
Description: The sensitivity of the regulatory mutants of the yeast C. famata which overproduce riboflavin in iron rich medium probably due to defects in genes regulating repression (repression mutants), to different ions of heavy metals was studied. For this, the analyzed strains were streaked on the YPD plates and then were replica-plated on Burkholder synthetic medium containing leucine (40 μg/ml). The C.famata mutants L20105-40-1-11, L20105-40-1-17, L20105-3-2-1, L20105-3-2-8 and L20105-3-2-12 (all contained leu2 marker) accumulated 80–100 μg riboflavin/ml. The mutants #75, 4-48, 2-5 produced much higher amounts of riboflavin (200–250 μg/ml) but were prototrophs for leucine synthesis. Strain #75 was characterized by retarded growth comparing with other mutants. The strains VKM Y-9 (wild type) and L20105 (leu2) were used as the control strains.

[K+].[K+].[O]=[Cr](=[O])([O-])[O][Cr](=[O])(=[O])[O-] [K2Cr2O7] was tested, and the “growth of wild-type strain P. guilliermondii ATCC 9058” value [1] was “only slightly depressed”, the growth ([2]; #2-5, K2Cr2O7 25 μM) was “+++” and the growth ([2]; #2-5, K2Cr2O7 30 μM) was “+++”. For the same compound, the growth ([2]; #2-5, K2Cr2O7 35 μM) was “+++”, the growth ([2]; #2-5, K2Cr2O7 40 μM) was “+++” and the growth ([2]; #2-5, K2Cr2O7 45 μM) was “+++”. The growth ([2]; #2-5, K2Cr2O7 55 μM) was “++”, the growth ([2]; #2-5, K2Cr2O7 85 μM) was “—” and the growth ([2]; #2-5, K2Cr2O7 100 μM) was “—”. For the same compound, the growth ([2]; #2-5, K2Cr2O7 125 μM) was “—”, the growth ([2]; #2-5, K2Cr2O7 150 μM) was “—” and the growth ([2]; #4-48, K2Cr2O7 25 μM) was “+++”. For the same compound, the growth ([2]; #4-48, K2Cr2O7 30 μM) was “+++”, the growth ([2]; #4-48, K2Cr2O7 35 μM) was “+++” and the growth ([2]; #4-48, K2Cr2O7 40 μM) was “+++”. The growth ([2]; #4-48, K2Cr2O7 45 μM) was “+++”, the growth ([2]; #4-48, K2Cr2O7 55 μM) was “++” and the growth ([2]; #4-48, K2Cr2O7 65 μM) was “—”. For the same compound, the growth ([2]; #4-48, K2Cr2O7 70 μM) was “—”, the growth ([2]; #4-48, K2Cr2O7 75 μM) was “—” and the growth ([2]; #4-48, K2Cr2O7 85 μM) was “—”. For the same compound, the growth ([2]; #4-48, K2Cr2O7 100 μM) was “—”, the growth ([2]; #4-48, K2Cr2O7 125 μM) was “—” and the growth ([2]; #4-48, K2Cr2O7 150 μM) was “—”. The growth ([2]; #75, K2Cr2O7 25 μM) was “+++”, the growth ([2]; #75, K2Cr2O7 30 μM) was “+++” and the growth ([2]; #75, K2Cr2O7 35 μM) was “+++”. The growth ([2]; #75, K2Cr2O7 45 μM) was “++”, the growth ([2]; #75, K2Cr2O7 55 μM) was “++” and the growth ([2]; #75, K2Cr2O7 65 μM) was “—”. For the same compound, the growth ([2]; #75, K2Cr2O7 70 μM) was “—”, the growth ([2]; #75, K2Cr2O7 75 μM) was “—” and the growth ([2]; #75, K2Cr2O7 85 μM) was “—”. The growth ([2]; #75, K2Cr2O7 100 μM) was “—”, the growth ([2]; #75, K2Cr2O7 125 μM) was “—” and the growth ([2]; #75, K2Cr2O7 150 μM) was “—”. For the same compound, the growth ([2]; L20105 (leu2), K2Cr2O7 25 μM) was “+++”, the growth ([2]; L20105 (leu2), K2Cr2O7 30 μM) was “+++” and the growth ([2]; L20105 (leu2), K2Cr2O7 35 μM) was “+++”. For the same compound, the growth ([2]; L20105 (leu2), K2Cr2O7 40 μM) was “+++”, the growth ([2]; L20105 (leu2), K2Cr2O7 45 μM) was “+++” and the growth ([2]; L20105 (leu2), K2Cr2O7 50 μM) was “+++”. The growth ([2]; L20105 (leu2), K2Cr2O7 55 μM) was “+++”, the growth ([2]; L20105 (leu2), K2Cr2O7 60 μM) was “+++” and the growth ([2]; L20105 (leu2), K2Cr2O7 65 μM) was “++”. For the same compound, the growth ([2]; L20105 (leu2), K2Cr2O7 70 μM) was “++”, the growth ([2]; L20105 (leu2), K2Cr2O7 75 μM) was “++” and the growth ([2]; L20105 (leu2), K2Cr2O7 85 μM) was “++”. The growth ([2]; L20105 (leu2), K2Cr2O7 100 μM) was “++”, the growth ([2]; L20105 (leu2), K2Cr2O7 125 μM) was “—” and the growth ([2]; L20105 (leu2), K2Cr2O7 150 μM) was “—”. For the same compound, the growth ([2]; L20105-3-2-4, K2Cr2O7 25 μM) was “+++”, the growth ([2]; L20105-3-2-4, K2Cr2O7 45 μM) was “—” and the growth ([2]; L20105-3-2-4, K2Cr2O7 50 μM) was “—”. For the same compound, the growth ([2]; L20105-3-2-4, K2Cr2O7 55 μM) was “—”, the growth ([2]; L20105-3-2-4, K2Cr2O7 60 μM) was “—” and the growth ([2]; L20105-3-2-4, K2Cr2O7 65 μM) was “—”. The growth ([2]; L20105-3-2-4, K2Cr2O7 70 μM) was “—”, the growth ([2]; L20105-3-2-4, K2Cr2O7 85 μM) was “—” and the growth ([2]; L20105-3-2-4, K2Cr2O7 100 μM) was “—”. For the same compound, the growth ([2]; L20105-3-2-4, K2Cr2O7 125 μM) was “—”, the growth ([2]; L20105-3-2-4, K2Cr2O7 150 μM) was “—” and the growth ([2]; L20105-3-2-8, K2Cr2O7 25 μM) was “+++”. The growth ([2]; L20105-3-2-8, K2Cr2O7 45 μM) was “—”, the growth ([2]; L20105-3-2-8, K2Cr2O7 50 μM) was “—” and the growth ([2]; L20105-3-2-8, K2Cr2O7 55 μM) was “—”. The growth ([2]; L20105-3-2-8, K2Cr2O7 60 μM) was “—”, the growth ([2]; L20105-3-2-8, K2Cr2O7 65 μM) was “—” and the growth ([2]; L20105-3-2-8, K2Cr2O7 70 μM) was “—”. For the same compound, the growth ([2]; L20105-3-2-8, K2Cr2O7 75 μM) was “—”, the growth ([2]; L20105-3-2-8, K2Cr2O7 85 μM) was “—” and the growth ([2]; L20105-3-2-8, K2Cr2O7 100 μM) was “—”. The growth ([2]; L20105-3-2-8, K2Cr2O7 125 μM) was “—”, the growth ([2]; L20105-3-2-8, K2Cr2O7 150 μM) was “—” and the growth ([2]; L20105-3-2-12, K2Cr2O7 25 μM) was “+++”. For the same compound, the growth ([2]; L20105-3-2-12, K2Cr2O7 45 μM) was “—”, the growth ([2]; L20105-3-2-12, K2Cr2O7 50 μM) was “—” and the growth ([2]; L20105-3-2-12, K2Cr2O7 55 μM) was “—”. The growth ([2]; L20105-3-2-12, K2Cr2O7 60 μM) was “—”, the growth ([2]; L20105-3-2-12, K2Cr2O7 65 μM) was “—” and the growth ([2]; L20105-3-2-12, K2Cr2O7 70 μM) was “—”. The growth ([2]; L20105-3-2-12, K2Cr2O7 75 μM) was “—”, the growth ([2]; L20105-3-2-12, K2Cr2O7 85 μM) was “—” and the growth ([2]; L20105-3-2-12, K2Cr2O7 100 μM) was “—”. For the same compound, the growth ([2]; L20105-3-2-12, K2Cr2O7 125 μM) was “—”, the growth ([2]; L20105-3-2-12, K2Cr2O7 150 μM) was “—” and the growth ([2]; VKM Y-9, K2Cr2O7 65 μM) was “+++”. For the same compound, the growth ([2]; VKM Y-9, K2Cr2O7 70 μM) was “+++”, the growth ([2]; VKM Y-9, K2Cr2O7 75 μM) was “+++” and the growth ([2]; VKM Y-9, K2Cr2O7 85 μM) was “+++”. The growth ([2]; VKM Y-9, K2Cr2O7 100 μM) was “+++” and the growth ([2]; VKM Y-9, K2Cr2O7 125 μM) was “++”.

From patent US7009045B2 (priority 2000, dated 2006)
